Earlier results on one compound are cited in patent publication US20220202844A1, “DRUG DELIVERY COMPOSITION AND A METHOD OF ADMINISTERING THE DRUG” (priority 2020, published 2022).

Converted amounts (≈) assume the structure as drawn.

For this data set the following is noted: background statement.

As to `NC(=O)c1ccc[n+]([C@@H]2O[C@H](COP(=O)([O-])OP(=O)(O)OC[C@H]3O[C@@H](n4cnc5c(N)ncnc54)[C@H](O)[C@@H]3O)[C@@H](O)[C@H]2O)c1` [NAD+, nicotinamide adenine dinucleotide], the aqueous solubility is 50 mg/mL (≈ 75.4 mM).
